Experimental data reported in ChEMBL document CHEMBL1158801, “Acylphloroglucinol derivatives from Mahurea palustris” (J Nat Prod, 2005).
The source made the active and inactive calls. The calls are words filed in the database; no cut-off is given here.

Tests used:
DNA polymerase beta = DNA polymerase beta (Homo sapiens, UniProt P06746); assay: Inhibition of human recombinant DNA polymerase beta assessed as fluorescein-12-dCTP incorporation by fluorimetry
[1] = test system: Human immunodeficiency virus; assay: Inhibition of HIV reverse transcriptase at 50 uM

| SMILES | Activity (DNA polymerase beta) | IC50 (DNA polymerase beta) | fold change (FC) [1] |
| --- | --- | --- | --- |
| CC(C)=CCC1CC2(CC=C(C)C)C(=O)C(C(=O)C(C)C)=C(O)OC2=C(C(CC(=O)O)c2ccccc2)C1(C)C (stereo not given) | inactive | – | – |
| CCC(C)C(=O)C1=C(O)OC2=C(C(CC(=O)O)c3ccccc3)C(C)(C)C(CCC(C)(C)NC(C)=O)CC2(CC=C(C)C)C1=O (stereo not given) | inactive | – | – |
| CCC(C)C(=O)C1=C(O)OC2=C(C(CC(=O)O)c3ccccc3)C(C)(C)C(CCC(C)(C)O)CC2(CC=C(C)C)C1=O (stereo not given) | inactive | – | – |
| CCC(C)C(=O)C1=C(O)OC2=C(C(CC(=O)O)c3ccccc3)C(C)(C)C(CCC(C)(C)OC(=O)C(F)(F)F)CC2(CC=C(C)C)C1=O (stereo not given) | inactive | – | – |

Results, then the compound that gave them:

| Activity (DNA polymerase beta) | IC50 (DNA polymerase beta) | fold change (FC) [1] | SMILES |
| --- | --- | --- | --- |
| – | 28 µM | 2 | CC(C)=CCC1CC2(CC=C(C)C)C(=O)C(C(=O)CC(C)C)=C(O)OC2=C(C(CC(=O)O)c2ccccc2)C1(C)C (stereo not given) [MAHUREONE A] |
| – | 73 µM | – | CCC(C)C(=O)C1=C(O)OC2=C(C(CC(=O)O)c3ccccc3)C(C)(C)C(CC=C(C)C)CC2(CC=C(C)C)C1=O (stereo not given) [MAHUREONE B] |
| – | 12 µM | – | CCCC(CC(=O)O)C1=C2OC(O)=C(C(=O)CC(C)C)C(=O)C2(CC=C(C)C)CC(CC=C(C)C)C1(C)C (stereo not given) [MAHUREONE D] |
| – | 342 µM | – | CCCC(CC(=O)O)C1=C2OC(O)=C(C(=O)C(C)CC)C(=O)C2(CC=C(C)C)CC(CC=C(C)C)C1(C)C (stereo not given) [MAHUREONE E] |
| – | 1.3 µM | – | Nc1ccn([C@H]2CC[C@@H](COP(=O)(O)OP(=O)(O)OP(=O)(O)O)O2)c(=O)n1 [ddCTP SODIUM] |
